Measured values: patent US12018023B2 (NERVIANO MEDICAL SCIENCES S.R.L., priority 2018, dated 2024)

Assays:
[1] = molecular target: T1, IDH1^R132H homodimer enzyme (Homo sapiens, UniProt O75874, R132H); experiment: NADPH depletion assay, IDH1 R132H; assay type: biochemical
T1 construct: purchased not specified
Method in brief: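 IDH1 R132H enzyme (8 nM as diluted) in Tris-HCl pH 7.6 with 10 mM MgCl2, 0.001% Triton X-100 and 4 mM β-mercaptoethanol is preincubated 15 min at RT with compound. Substrate mix (12 uM NADPH, 3.4 mM α-ketoglutarate) is added for 60 min; remaining NAD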

[2] = molecular target: T2, IDH1^R132C (Homo sapiens, UniProt O75874, R132C); experiment: NADPH depletion assay, IDH1 R132C; assay type: biochemical
T2 construct: purchased not specified
T2 sequence (O75874 whole entry R132C): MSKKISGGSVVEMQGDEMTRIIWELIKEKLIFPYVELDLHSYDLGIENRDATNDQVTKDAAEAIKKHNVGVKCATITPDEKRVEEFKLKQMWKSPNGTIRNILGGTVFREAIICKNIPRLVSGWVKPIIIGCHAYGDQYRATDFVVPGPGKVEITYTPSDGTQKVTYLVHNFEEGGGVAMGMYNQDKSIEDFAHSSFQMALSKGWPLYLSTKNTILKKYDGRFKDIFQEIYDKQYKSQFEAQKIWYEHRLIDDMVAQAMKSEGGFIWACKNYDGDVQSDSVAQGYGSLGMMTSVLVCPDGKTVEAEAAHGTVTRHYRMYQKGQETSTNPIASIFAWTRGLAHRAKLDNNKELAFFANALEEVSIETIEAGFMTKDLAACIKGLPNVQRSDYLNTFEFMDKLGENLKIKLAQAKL
Method in brief: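 IDH1 R132C (2 nM) preincubated 15 min at RT with compound in Tris-HCl pH 7.6/MgCl2 buffer, then 60 min RT with NADPH and 0.14 mM alpha-ketoglutarate. Remaining NADPH read by diaphorase/resazurin fluorescence (Ex544/Em590).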

[3] = molecular target: T3, IDH2^R172K (Homo sapiens, UniProt P48735, R172K); experiment: NADPH depletion assay, IDH2 R172K; assay type: biochemical
T3 construct: purchased not specified
T3 sequence (P48735 40-452 R172K): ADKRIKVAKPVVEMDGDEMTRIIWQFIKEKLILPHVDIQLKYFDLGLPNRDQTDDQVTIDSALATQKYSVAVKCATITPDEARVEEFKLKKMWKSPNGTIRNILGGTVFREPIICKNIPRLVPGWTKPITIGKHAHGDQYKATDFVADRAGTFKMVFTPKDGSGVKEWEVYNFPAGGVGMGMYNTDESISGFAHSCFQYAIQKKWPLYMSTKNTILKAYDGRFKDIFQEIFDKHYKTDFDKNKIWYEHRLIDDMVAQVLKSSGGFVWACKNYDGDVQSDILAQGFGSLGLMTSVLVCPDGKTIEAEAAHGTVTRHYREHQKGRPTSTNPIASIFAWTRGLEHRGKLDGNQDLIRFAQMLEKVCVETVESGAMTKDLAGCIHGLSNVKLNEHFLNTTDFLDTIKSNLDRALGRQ
Method in brief: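 IDH2 R172K (16 nM) was preincubated 15 min at RT with compound (1:3 series from 1 mM in DMSO) in Tris pH 7.6/NaCl/MgCl2/Triton/β-mercaptoethanol. The reaction ran 60 min at RT with 0.55 mM alpha-ketoglutarate and NADPH (12 μM in the substrate mix). Remaining NADPH was read with diaphorase/resazurin fluorescence at Ex544/Em590.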

[4] = test system: U87MG_IDH1R132H; experiment: Cellular 2-HG production assay, U87-MG-IDH1 R132H; assay type: cell-based; conditions: inhibition of 2HG production, 72 hr incubation, LC-MS/MS
Method: (§1) Cell lines HT-1080 (commercially available) and U87-MG-IDH1^R132H (obtained in analoy to the procedure reported in J. Mol. Neurosci 2013, 50, 165-71) are maintained in E-MEM 10% FCS and incubated at 37° C. in a humidified 5% CO2 atmosphere. Stably transfected U87-MG cell lines are also supplemented with 500 μg/mL G418.
(§2) Cells are seeded into 96 well black flat bottom plates at a density of 500 cells/well in 100 μL complete medium. After 24 hr the medium is replaced with 200 uL of fresh medium and compounds (dissolved into DMSO) are administrated to the cells using D300E Digital Dispenser (Tecan).
(§3) After 72 hr of incubation 100 uL from each well are collected and used for 2HG (R(−)-2-hydroxyglutarate) quantification.
(§4) Levels of 2-HG in cell culture media are determined by LC-MS/MS. Cell supernatants (100 μL/well) are treated with 1 M aqueous trichloroacetic acid containing 130 μM of the internal standard 2-HG-d3 (20 μL/well) in a 96-well plate.
(§5) The plates are sealed, mildly vortexed for 60 minutes, centrifuged at 4,000 RPM for 15 minutes, placed in a refrigerated autosampler taking care not to shake them, and aliquots of the upper part of the samples are directly injected in the chromatographic system. Calibration standards are obtained by ten fold dilution of aqueous 2-HG stock solutions with blank cell culture medium and denatured exactly in the same way as described above for samples. Samples and standards are assayed for 2-HG by reversed phase chromatography on a C18 column eluted with aqueous 0.15% formic acid and briefly washed with 90% methanol at the end of the run. 2-HG is determined by negative ion electrospray ionization with the internal standard method on a triple quadrupole mass spectrometer monitoring the MRM transitions 147>129 (2-HG) and 150>132 (2-HG-d3). 2-HG inhibition was calculated by comparing treated versus control data using Assay Explore (Symyx) software, with IC50 determined using a sigmoidal fitting algorithm.

[5] = test system: HT-1080 (IDH1^R132C); experiment: Cellular 2-HG production assay, HT-1080; assay type: cell-based; conditions: Homo sapiens, HT-1080, 72 h, inhibition of 2HG production, 72 hr incubation, LC-MS/MS; read-out: HT1080 2-HG IC50
Method: as §1, §2, §3, §4, §5

T1 sequence (O75874 whole entry R132H): as the sequence (O75874 whole entry R132C) above, with C132H counted along it

IC50 [1] [nM] | IC50 [2] [nM] | IC50 [3] [nM] | IC50 [4] [nM] | IC50 [5] [nM] | SMILES
194 | 124 | 6110 | 3220 |  | C[C@H](Nc1ncc2ccc(=O)n(CC(C)(C)C)c2n1)c1ccc(-c2ccnc(F)c2)cc1 [cpd 132, 8-(2,2-dimethylpropyl)-2-({(1S)-1-[4-(2-fluoropyridin-4-yl)phenyl]ethyl}amino)pyrido[2,3-d]pyrimidin-7(8H)-one]
367 | 282 | 5510 | 2540 |  | C[C@H](Nc1ncc2ccc(=O)n(CC3CCCCC3)c2n1)c1ccc(CN2CCC(F)(F)CC2)cc1 [cpd 113, 8-(cyclohexylmethyl)-2-{[(1S)-1-{4-[(4,4-difluoropiperidin-1-yl)methyl]phenyl}ethyl]amino}pyrido[2,3-d]pyrimidin-7(8H)-one]
334 | 218 | 5680 | 1810 |  | C[C@H](Nc1ncc2ccc(=O)n(CC3CCC3)c2n1)c1ccc(CN2CCC(F)(F)CC2)cc1 [cpd 109, 8-(cyclobutylmethyl)-2-{[(1S)-1-{4-[(4,4-difluoropiperidin-1-yl)methyl]phenyl}ethyl]amino}pyrido[2,3-d]pyrimidin-7(8H)-one]
68 | 38 | 2510 | 2530 |  | C[C@H](Nc1ncc2ccc(=O)n(CC(C)(C)C)c2n1)c1cc2cc(Cl)ccc2[nH]c1=O [cpd 50, 2-{[(1S)-1-(6-chloro-2-oxo-quinolin-3-yl)ethyl]amino}-8-(2,2-dimethylpropyl)pyrido[2,3-d]pyrimidin-7(8H)-one]
180 | 93 | 5030 | 4840 |  | C[C@H](Nc1ncc2ccc(=O)n(CC(C)(C)C)c2n1)c1ccc(-c2cnn(C)c2)cc1 [cpd 130, 8-(2,2-dimethylpropyl)-2-({(1S)-1-[4-(1-methyl-1H-pyrazol-4-yl)phenyl]ethyl}amino)pyrido[2,3-d]pyrimidin-7 (8H)-one]
20 | 8 |  | 127 |  | CC(C)[C@H](C)n1c(=O)ccc2cnc(N[C@@H](C)c3ccc(CN4C[C@@H](C)O[C@@H](C)C4)c(F)c3)nc21 [cpd 150, 2-{[(1S)-1-(4-{[(2R,6S)-2,6-dimethylmorpholin-4-yl]methyl}-3-fluorophenyl)ethyl]amino}-8-[(2S)-3-methylbutan-2-yl]pyrido[2,3-d]pyrimidin-7(8H)-one]
276 | 121 | 5130 | 1770 |  | CC(C)Cn1c(=O)ccc2cnc(N[C@@H](C)c3ccc(CN4CCC(F)(F)CC4)cc3)nc21 [cpd 104, 2-{[(1S)-1-{4-[(4,4-difluoropiperidin-1-yl)methyl]phenyl}ethyl]amino}-8-(2-methylpropyl)pyrido[2,3-d]pyrimidin-7(8H)-one]
178 |  | 6540 | 4040 |  | C[C@H](Nc1ncc2ccc(=O)n(CC(C)(C)C)c2n1)c1ccc2ccccc2c1 [cpd 36, 8-(2,2-dimethylpropyl)-2-{[(1S)-1-(naphthalen-2-yl)ethyl]amino}pyrido[2,3-d]pyrimidin-7(8H)-one]
197 | 98 | 6680 | 3840 |  | C[C@H](Nc1ncc2ccc(=O)n(CC(C)(C)C#N)c2n1)c1ccc2ccccc2c1 [cpd 129, 2,2-dimethyl-3-[2-{[(1S)-1-(naphthalen-2-yl)ethyl]amino}-7-oxopyrido[2,3-d]pyrimidin-8(7H)-yl]propanenitrile]
20 | 11 |  | 179 | 82 | CC(C)[C@H](C)n1c(=O)ccc2cnc(N[C@@H](C)c3ccc(CN4CCCC(F)(F)C4)cc3)nc21 [cpd 65, 2-{[(1S)-1-{4-[(3,3-difluoropiperidin-1-yl)methyl]phenyl}ethyl]amino}-8-[(2S)-3-methylbutan-2-yl]pyrido[2,3-d]pyrimidin-7(8H)-one]
152 | 61 | 6110 | 874 |  | C[C@H](Nc1ncc2ccc(=O)n(CC(C)(C)C)c2n1)c1ccc(-c2ccccc2C#N)cc1 [cpd 134, 4′-[(1S)-1-{[8-(2,2-dimethylpropyl)-7-oxo-7,8-dihydropyrido[2,3-d]pyrimidin-2-yl]amino}ethyl]biphenyl-2-carbonitrile]
112 | 75 |  | 501 | 505 | C[C@H](Nc1ncc2ccc(=O)n(CC(C)(C)C)c2n1)c1ccc(C(=O)NC2CCC(F)(F)CC2)c(F)c1 [cpd 89, N-(4,4-difluorocyclohexyl)-4-[(1S)-1-{[8-(2,2-dimethylpropyl)-7-oxo-7,8-dihydropyrido[2,3-d]pyrimidin-2-yl]amino}ethyl]-2-fluorobenzamide]
347 | 196 | 4260 | 2060 |  | C[C@H](Nc1ncc2ccc(=O)n(CC(C)(C)C)c2n1)c1ccc(C(=O)N2CCC(F)(F)CC2)cc1 [cpd 83, 2-{[(1S)-1-{4-[(4,4-difluoropiperidin-1-yl)carbonyl]phenyl}ethyl]amino}-8-(2,2-dimethylpropyl) pyrido[2,3-d]pyrimidin-7(8H)-one]
201 | 132 | 3630 | 1380 |  | C[C@H](Nc1ncc2ccc(=O)n(Cc3c(F)cccc3F)c2n1)c1ccc(CN2CCC(F)(F)CC2)cc1 [cpd 99, 8-(2,6-difluorobenzyl)-2-{[(1S)-1-{4-[(4,4-difluoropiperidin-1-yl)methyl]phenyl}ethyl]amino}pyrido[2,3-d]pyrimidin-7(8H)-one]
407 | 431 |  | 1190 |  | C[C@H](Nc1ncc2ccc(=O)n(Cc3c(F)cccc3F)c2n1)c1ccc(C(=O)NC2CCC(F)(F)CC2)cc1 [cpd 75, 4-[(1S)-1-{[8-(2,6-difluorobenzyl)-7-oxo-pyrido[2,3-d]pyrimidin-2-yl]amino}ethyl]-N-(4,4-difluorocyclohexyl)benzamide]
137 | 67 | 7510 | 2640 |  | C[C@H](Nc1ncc2ccc(=O)n(CC(C)(C)CO)c2n1)c1ccc2ccccc2c1 [cpd 38, 8-(3-hydroxy-2,2-dimethylpropyl)-2-{[(1S)-1-(naphthalen-2-yl)ethyl]amino}pyrido[2,3-d]pyrimidin-7(8H)-one]
207 | 209 |  | 3030 |  | C[C@H](Nc1ncc2ccc(=O)n(Cc3c(F)cccc3F)c2n1)c1ccc(C(=O)N2CCC(F)(F)CC2)cc1 [cpd 77, 8-(2,6-difluorobenzyl)-2-{[(1S)-1-{4-[(4,4-difluoropiperidin-1-yl)carbonyl]phenyl}ethyl]amino} pyrido[2,3-d]pyrimidin-7(8H)-one]
36 | 22 |  | 78 |  | C[C@H](Nc1ncc2ccc(=O)n([C@@H](C)C(C)(C)C)c2n1)c1ccc(CN2CCCC(F)(F)C2)cc1 [cpd 69, 2-{[(1S)-1-{4-[(3,3-difluoropiperidin-1-yl)methyl]phenyl}ethyl]amino}-8-[(2S)-3,3-dimethylbutan-2-yl]pyrido [2,3-d]pyrimidin-7(8H)-one]
